Experimental data: PubChem BioAssay AID328 (DTP/NCI, 2004)
Values joined by “and” are separate entries in the source; they are usually repeats but may differ in a detail not shown here. Identical values can stand only once. Toxic doses and inconclusive results are not listed. The calls were made as follows: active = survival T/C of 150% or more; inactive = T/C below 125% in these data.

System: BDF1 mice, P388 leukemia ip, median survival T/C
Experiment: NCI In Vivo Anticancer Drug Screen. Data for tumor model P388 Leukemia (intraperitoneal) in B6D2F1 (BDF1) mice
Settings: endpoint: median survival time, higher = longer survival
Summary of the method: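 Read-out is survival of treated animals expressed relative to the vehicle group, as a T/C ratio.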

[1] = dose: 100.0 mg/kg/injection, schedule: Q01DX009 (ip), vehicle: saline with Tween-80
[2] = dose: 200.0 mg/kg/injection, schedule: Q01DX009 (ip), vehicle: saline with Tween-80
[3] = dose: 50.0 mg/kg/injection, schedule: Q01DX009 (ip), vehicle: saline with Tween-80
[4] = dose: 100.0 mg/kg/injection, schedule: Q01DX001 (ip), vehicle: saline with Tween-80
[5] = dose: 400.0 mg/kg/injection, schedule: Q01DX001 (ip), vehicle: saline with Tween-80
[6] = dose: 50.0 mg/kg/injection, schedule: Q01DX009 (ip), vehicle: Klucel (hydroxypropylcellulose) (HPC)
[7] = dose: 100.0 mg/kg/injection, schedule: Q01DX009 (ip), vehicle: Klucel (hydroxypropylcellulose) (HPC)
[8] = dose: 100.0 mg/kg/injection, schedule: Q04DX003 (ip), vehicle: Klucel (hydroxypropylcellulose) (HPC)
[9] = dose: 200.0 mg/kg/injection, schedule: Q01DX009 (ip), vehicle: Klucel (hydroxypropylcellulose) (HPC)
[10] = dose: 200.0 mg/kg/injection, schedule: Q04DX003 (ip), vehicle: Klucel (hydroxypropylcellulose) (HPC)
[11] = dose: 400.0 mg/kg/injection, schedule: Q04DX003 (ip), vehicle: Klucel (hydroxypropylcellulose) (HPC)
[12] = dose: 200.0 mg/kg/injection, schedule: Q01DX001 (ip), vehicle: saline with Tween-80
[13] = dose: 25.0 mg/kg/injection, schedule: Q04DX003 (ip), vehicle: saline with Tween-80
[14] = dose: 50.0 mg/kg/injection, schedule: Q04DX003 (ip), vehicle: saline with Tween-80
[15] = dose: 6.25 mg/kg/injection, schedule: Q01DX009 (ip), vehicle: saline with Tween-80
[16] = dose: 12.5 mg/kg/injection, schedule: Q01DX009 (ip), vehicle: saline with Tween-80
[17] = dose: 25.0 mg/kg/injection, schedule: Q01DX009 (ip), vehicle: saline with Tween-80
[18] = dose: 100.0 mg/kg/injection, schedule: Q04DX003 (ip), vehicle: saline with Tween-80

Measured: T/C

CSc1nc(N)c2c(C(N)=O)cc(=O)[nH]c2n1
inactive: dose: 100.0 mg/kg/injection, schedule: Q04DX002 (ip), vehicle: saline with Tween-80 101 % of control | dose: 200.0 mg/kg/injection, schedule: Q04DX002 (ip), vehicle: saline with Tween-80 90 % of control

C/C=C/C(=O)OCCC[N+](C)(C)C
inactive: dose: 0.09 mg/kg/injection, schedule: Q01DX009 (ip), vehicle: saline 95 % of control | dose: 0.19 mg/kg/injection, schedule: Q01DX009 (ip), vehicle: saline 92 % of control | dose: 0.39 mg/kg/injection, schedule: Q01DX009 (ip), vehicle: saline 96 % of control and 109 % of control | dose: 0.78 mg/kg/injection, schedule: Q01DX009 (ip), vehicle: saline 96 % of control and 101 % of control | dose: 1.56 mg/kg/injection, schedule: Q01DX009 (ip), vehicle: saline 96 % of control and 111 % of control | dose: 3.12 mg/kg/injection, schedule: Q01DX009 (ip), vehicle: saline 100 % of control and 105 % of control | dose: 6.25 mg/kg/injection, schedule: Q01DX009 (ip), vehicle: saline 92 % of control

O=c1c2oc3ccccc3c2cnn1CO
inactive: [1] 90 % of control | [2] 116 % of control

O=C(O)Cc1nc(Cl)ccc1Cl
inactive: [3] 106 % of control | [1] 100 % of control | [2] 92 % of control

CCCCCCCCCCCCCCCCCSCCCCCSCCCCCCCCCCCCCCCCC
inactive: [4] 90 % of control | [5] 86 % of control

N#CC(C#N)=Cc1ccc(Cl)c(Cl)c1
inactive: dose: 25.0 mg/kg/injection, schedule: Q01DX009 (ip), vehicle: Klucel (hydroxypropylcellulose) (HPC) 115 % of control | [6] 100 % of control | dose: 50.0 mg/kg/injection, schedule: Q04DX003 (ip), vehicle: Klucel (hydroxypropylcellulose) (HPC) 100 % of control | [7] 120 % of control | [8] 100 % of control

OCC(O)C1CCCCN1 (centres undefined)
inactive: dose: 50.0 mg/kg/injection, schedule: Q01DX009 (ip), vehicle: saline 104 % of control | dose: 100.0 mg/kg/injection, schedule: Q01DX009 (ip), vehicle: saline 106 % of control | dose: 200.0 mg/kg/injection, schedule: Q01DX009 (ip), vehicle: saline 104 % of control

BrCCN(CCBr)c1cccc(/C=C/c2ccccc2)c1
inactive: [6] 99 % of control | [7] 101 % of control | [9] 114 % of control

Cc1ccc(C2(C(=O)O)CCCCC2)cc1
inactive: [7] 100 % of control | [8] 109 % of control | [9] 92 % of control | [10] 104 % of control | [11] 100 % of control

C[C@]12CC[C@H](O)C[C@@]1(O)CC[C@@H]1[C@@H]2CC[C@]2(C)[C@@H](c3ccc(=O)oc3)CC[C@]12O
inactive: dose: 1.25 mg/kg/injection, schedule: Q01DX009 (ip), vehicle: Klucel (hydroxypropylcellulose) (HPC) 93 % of control | dose: 2.5 mg/kg/injection, schedule: Q01DX009 (ip), vehicle: Klucel (hydroxypropylcellulose) (HPC) 94 % of control | dose: 5.0 mg/kg/injection, schedule: Q01DX009 (ip), vehicle: Klucel (hydroxypropylcellulose) (HPC) 99 % of control | dose: 6.2 mg/kg/injection, schedule: Q01DX010 (ip), vehicle: carboxymethylcellulose (CMC) 105 % of control | dose: 10.0 mg/kg/injection, schedule: Q01DX009 (ip), vehicle: Klucel (hydroxypropylcellulose) (HPC) 101 % of control | dose: 12.5 mg/kg/injection, schedule: Q01DX010 (ip), vehicle: carboxymethylcellulose (CMC) 90 % of control | dose: 20.0 mg/kg/injection, schedule: Q01DX009 (ip), vehicle: Klucel (hydroxypropylcellulose) (HPC) 105 % of control | dose: 25.0 mg/kg/injection, schedule: Q01DX010 (ip), vehicle: carboxymethylcellulose (CMC) 100 % of control

O=C(O)c1cc(O)c(Br)c(O)c1
inactive: [4] 109 % of control | [12] 100 % of control | [5] 104 % of control

COc1cc(C=Nc2cc(Cl)c(O)c(Cl)c2)ccc1N(CCCl)CCCl
inactive: dose: 12.5 mg/kg/injection, schedule: Q04DX003 (ip), vehicle: saline with Tween-80 111 % of control | [14] 100 % of control
active: dose: 5.0 mg/kg/injection, schedule: Q04DX003 (ip), vehicle: saline with Tween-80 181 % of control | dose: 8.0 mg/kg/injection, schedule: Q04DX003 (ip), vehicle: saline with Tween-80 222 % of control | dose: 12.0 mg/kg/injection, schedule: Q04DX003 (ip), vehicle: saline with Tween-80 231 % of control and 211 % of control | dose: 17.0 mg/kg/injection, schedule: Q04DX003 (ip), vehicle: saline with Tween-80 196 % of control | [13] 215 % of control | dose: 37.5 mg/kg/injection, schedule: Q04DX003 (ip), vehicle: saline with Tween-80 230 % of control

CC(O)C(O)C(O)C(O)/C=N/O (centres undefined)
inactive: [10] 92 % of control | [11] 88 % of control

Cc1ccc2c(c1)=N/C(=N/c1[nH]c(O)c3ccccc13)N=2
inactive: [15] 108 % of control | [16] 99 % of control | [17] 108 % of control

Cc1nc(C(=O)O)c(=O)[nH]c1C
inactive: dose: 50.0 mg/kg/injection, schedule: Q01DX009 (ip), vehicle: water 114 % of control | dose: 50.0 mg/kg/injection, schedule: Q04DX003 (ip), vehicle: water 94 % of control | dose: 100.0 mg/kg/injection, schedule: Q01DX009 (ip), vehicle: water 122 % of control | dose: 100.0 mg/kg/injection, schedule: Q04DX003 (ip), vehicle: water 105 % of control | dose: 200.0 mg/kg/injection, schedule: Q01DX009 (ip), vehicle: water 121 % of control | dose: 200.0 mg/kg/injection, schedule: Q04DX003 (ip), vehicle: water 100 % of control

CCCCCCC(=O)/C=C/c1cccc(O)c1
inactive: [3] 104 % of control | [1] 104 % of control | [2] 95 % of control

CC(C)(C)c1cccc(C(C)(C)C)c1
inactive: [4] 100 % of control | [12] 94 % of control

Cc1cccc(-n2c(CC#N)n[nH]c2=S)c1
inactive: [3] 96 % of control | [2] 100 % of control

O=C(O)c1c(I)c(I)c(I)c(I)c1C(=O)c1ccccc1
inactive: dose: 44.0 mg/kg/injection, schedule: Q04DX003 (ip), vehicle: saline 109 % of control | dose: 67.0 mg/kg/injection, schedule: Q04DX003 (ip), vehicle: saline with Tween-80 104 % of control | dose: 67.0 mg/kg/injection, schedule: Q04DX003 (ip), vehicle: saline 104 % of control | [1] 111 % of control | [18] 104 % of control | dose: 100.0 mg/kg/injection, schedule: Q04DX003 (ip), vehicle: saline 118 % of control | dose: 150.0 mg/kg/injection, schedule: Q04DX003 (ip), vehicle: saline with Tween-80 109 % of control | dose: 150.0 mg/kg/injection, schedule: Q04DX003 (ip), vehicle: saline 113 % of control | [2] 111 % of control | dose: 200.0 mg/kg/injection, schedule: Q04DX003 (ip), vehicle: saline with Tween-80 110 % of control | dose: 400.0 mg/kg/injection, schedule: Q04DX003 (ip), vehicle: saline with Tween-80 120 % of control

CCCSc1ncnc2nc(C)[nH]c12
inactive: dose: 0.39 mg/kg/injection, schedule: Q01DX009 (ip), vehicle: saline with Tween-80 100 % of control | dose: 0.78 mg/kg/injection, schedule: Q01DX009 (ip), vehicle: saline with Tween-80 109 % of control | dose: 1.56 mg/kg/injection, schedule: Q01DX009 (ip), vehicle: saline with Tween-80 100 % of control and 122 % of control | dose: 3.13 mg/kg/injection, schedule: Q01DX009 (ip), vehicle: saline with Tween-80 95 % of control and 100 % of control | [15] 103 % of control | [16] 103 % of control

O=C(NC(=O)c1c(F)cccc1F)Nc1ccc(Br)cn1
inactive: [17] 99 % of control | [3] 92 % of control | [1] 92 % of control

CCCCNC(C)(C)C(SSC(c1cccs1)C(C)(C)NCCCC)c1cccs1 (centres undefined)
inactive: [17] 100 % of control | [13] 109 % of control | [3] 100 % of control | [14] 118 % of control | [18] 118 % of control
